# PubChem BioAssay AID720562 (Broad Institute, 2013)
# Active and inactive are the calls of the source.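 The calls were made as follows: active = fitted curve rises past 40% activation at or below the highest valid tested dose; inconclusive = flat fit between 30% and 70%, or poor curve fit; inactive = the rest, including signal falling instead of rising.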
# Molecular target: Luciferin 4-monooxygenase (Photinus pyralis) (UniProt P08659)
# Assay: compounds altering purified luciferase luminescence – biochemical, CellTiter-Glo luminescence, dry powder samples, counter-screen for NLG project, dose response (AID 720562)
# Details: 1 h
# Luciferin 4-monooxygenase (Photinus pyralis), sequence (P08659 whole entry, looked up): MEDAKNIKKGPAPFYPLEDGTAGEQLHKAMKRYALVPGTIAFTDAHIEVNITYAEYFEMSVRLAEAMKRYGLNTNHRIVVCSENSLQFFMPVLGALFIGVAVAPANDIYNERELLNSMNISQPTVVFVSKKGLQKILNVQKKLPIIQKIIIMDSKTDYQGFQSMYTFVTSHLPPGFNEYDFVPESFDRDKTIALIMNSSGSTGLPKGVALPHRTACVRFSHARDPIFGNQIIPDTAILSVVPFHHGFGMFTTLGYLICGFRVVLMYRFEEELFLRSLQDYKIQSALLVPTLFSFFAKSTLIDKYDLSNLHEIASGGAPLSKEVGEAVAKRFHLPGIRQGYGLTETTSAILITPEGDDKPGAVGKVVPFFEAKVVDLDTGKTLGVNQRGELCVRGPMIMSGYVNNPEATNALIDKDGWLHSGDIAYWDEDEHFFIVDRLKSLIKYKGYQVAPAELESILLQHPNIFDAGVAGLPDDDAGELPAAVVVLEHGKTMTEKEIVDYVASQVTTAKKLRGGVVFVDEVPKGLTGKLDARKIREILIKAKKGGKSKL
row,Compound,AC40
1,COc1ccc(CSc2nnc(-c3ccccc3)o2)cc1,> 30 µM (inactive)
2,COC(=O)c1cn(C(=O)c2ccc(OC)cc2)c2ccccc12,12.5 µM
3,O=C1CCNc2cc3ccccc3cc21,28.2 µM
4,COc1ccc2c(COC(=O)c3cccc(S(=O)(=O)NCC(C)C)c3)cc(=O)oc2c1,1.49 µM
5,COc1ccc(-c2nnc(SCc3ccccc3)o2)cc1,> 30 µM (inactive)
6,Cc1ccc(/C=N/NC(=O)C2COc3ccccc3O2)s1 (configuration not stated),> 30 µM (inactive)
7,COc1cc(C(=O)NCCOc2cc(C)cc(C)c2)cc(OC)c1OC,24.5 µM
8,CCN(CC)CCC(=O)Nc1cccc2c1C(=O)c1ccccc1C2=O,14.7 µM
9,O=C(N/N=C/c1ccc(Cl)cc1)c1sccc1OCc1ccc(F)cc1,> 30 µM (inactive)
10,CCCNS(=O)(=O)c1cccc(C(=O)OCc2cc(=O)oc3cc(OC)ccc23)c1,6.81 µM
11,CC(=O)N[C@H]1[C@@H](O[C@@H]2OC(C[C@@H](O)C3O[C@@H](n4ccc(=O)[nH]c4=O)[C@H](O)[C@@H]3O)[C@H](O)[C@H](O)[C@H]2NC(=O)/C=C/CCCCCCCCCCC(C)C)O[C@H](CO)[C@@H](O)[C@@H]1O (some centres not stated),13.1 µM
12,COc1cc(-c2nnc(SCC3(c4ccc(Br)cc4)OCCO3)o2)cc(OC)c1OC,> 30 µM (inactive)
13,CC(=O)N1CCC(=O)c2cc3ccccc3cc21,4.65 µM
14,CCN(CC)CCOc1ccc2c(c1)C(=NNC(=O)c1ccccn1)c1cc(OCCN(CC)CC)ccc1-2,> 30 µM (inactive)
15,O=C(Cc1ccccc1)c1nnc(-c2ccccc2)o1,> 30 µM (inactive)
16,CCCOC(=O)c1[nH]c2c(c1C)C(=O)CC(c1cccs1)C2 (configuration not stated),10 µM
17,c1ccc(CSc2nnc(-c3ccccc3)o2)cc1,20.9 µM

# Same assay, conditions: 1 h, at 7.5 µM (top of the series)
row,Compound,"luminescence change, positive = activation"
1,O=C1CCN(Cc2ccccc2)c2cc3ccccc3cc21,10.8% (inactive)
2,CCn1c2ccccc2c2cc(NC(=O)c3cc(OC)c(OC)c(OC)c3)ccc21,-35.8% (inactive)
3,CCOc1ccc(S(=O)(=O)NCc2ccccn2)cc1NC(=O)c1ccccc1F,-35.8% (inactive)

# Same assay, conditions: 1 h, at 30 µM (top of the series)
row,Compound,"luminescence change, positive = activation"
1,COc1cccc(N2CCN(C(=O)c3ccc(CS(=O)c4ccc(C)cc4)o3)CC2)c1 (configuration not stated),8.11% (inactive)
2,C/C(=N\NC(=O)c1c([N+](=O)[O-])c(C)nn1C)c1ccc(NC(=O)C2CCCC2)cc1,-2.7% (inactive)
3,Cc1[nH][nH]c(=O)c1C(c1ccc(-c2ccc(Cl)c(Cl)c2)o1)c1c(C)[nH][nH]c1=O,7.43% (inactive)
4,Cc1ccc(CCC(=O)Nc2ncc(Cc3cc(Cl)ccc3Cl)s2)o1,-24.3% (inactive)
5,Nc1nc(=S)c2ncn([C@@H]3O[C@H](CO)[C@@H](O)[C@H]3O)c2[nH]1,97.3% (inactive)
6,CCOc1ccc(NC(=O)c2cc(OC)nc3ccccc23)cc1,-0.676% (inactive)
7,Cc1cccc(C)c1OCCNC(=O)C(=O)NCc1ccco1,-39.9% (inactive)
8,Cc1cnc(NC(=O)c2cc(S(=O)(=O)N(C)C)ccc2N2CCCC2)s1,8.11% (inactive)
9,Cc1ccc(C(=O)c2cc([N+](=O)[O-])ccc2N2CCOCC2)cc1C,19.8% (inactive)
10,CCOC(=O)c1ccc(Oc2cc(C)nc(SC)n2)cc1,16.2% (inactive)
11,COc1ccccc1OCC(=O)NNC(=O)c1ccoc1C,-17.6% (inactive)
12,Cc1cc(NC(=O)CSc2nc(-c3ccco3)cc(C(F)(F)F)n2)no1,-25.7% (inactive)
13,Cc1cc(C)nc(/N=C(\N)Nc2ccc(OCc3ccccc3)cc2)n1,36.9% (inactive)
14,CC(=O)c1ccc(Oc2cc(C)nc(-n3nc(C)cc3C)n2)cc1,-10.8% (inactive)
15,COc1ccc(NC(=O)C(=O)c2cn(CC(=O)N3CCCC3)c3ccccc23)cc1,-20.3% (inactive)
16,COc1ccccc1-c1nnc(SCc2ccccc2)o1,-10.8% (inactive)
17,CC(=O)c1cccc(NC(=O)CSc2ncc(C(=O)Nc3ccccc3)c(=O)n2C)c1,-7.43% (inactive)
18,Brc1ccc(CSc2nnc(-c3ccccc3)o2)cc1,21.6% (inactive)
19,CCC1=Nc2cc(C(=O)NCCCOC)ccc2Sc2ccccc21,-11.5% (inactive)
20,Cc1cc(C)cc(C(=O)N2CC(=O)Nc3ccccc32)c1,-9.46% (inactive)
21,CCOC(=O)COc1cccc2c(=O)n(CC(=O)NCc3ccccc3)ccc12,-4.73% (inactive)
22,CCN(CC)CCCNc1nc2cc(OC)c(OC)cc2c2nc(-c3ccccc3)nn12,-10.1% (inactive)
23,Cc1cc(=O)[nH]c(N/N=C/c2cc(C)n(CC(F)(F)F)c2C)n1,36% (inactive)
24,COc1ccccc1CSc1nnc(-c2ccccc2)o1,19.8% (inactive)
25,COc1cc(Nc2c3c(nc4ccccc24)CCCC3)cc(OC)c1OC,-14.9% (inactive)
26,Cc1ccc(Oc2ccc(S(=O)(=O)N3CCOCC3)cc2C(N)=O)c(-n2nc3ccccc3n2)c1,-22.3% (inactive)
27,CCCCOc1ccccc1C1CC(=O)NC2=C1C(=O)CCC2 (configuration not stated),-27% (inactive)
